Reference: patent US9394285B2 (Pfizer Inc., priority 2013, dated 2016)

Target: human AMPK (full-length γ1, β1 and α1 subunits) (Homo sapiens (Human), UniProt Q13131+Q9Y478)
Experiment: AMPK in vitro biochemical assay (33P-based, SAMS peptide, PP2A dephosphorylation)
Settings: for EC50: activation of phosphorylated AMPK, 33P-ATP, SAMS peptide, PP2A treatment, 4-parameter fit; for Emax / Maximum: counts as % of positive control wells (enzyme, allosteric activator or AMP, PP2A and substrate); for Emax: read-out: Maximum
Source text: We designed a tricistronic AMPK expression construct that included open reading frames encoding the full-length γ1, β1 and α1 subunits of human AMPK with a ribosome-binding site (RBS) ahead of each coding region and subcloned this into pET-14b expression vector (Novagen, Madison, Wis.) using standard molecular biology techniques. AMPK tricistronic construct was transformed into E. coli BL21-CodonPlus™ (DE3)-RIPL strain (Stratagene) and transformants were selected on LB (Luria-Bertani) agar plates containing ampicillin (100 μg/ml). […] Optical density sample measurements were made on an UltroSpec 2000 spectrophotometer (Pharmacia Biotech) at 600 nm. When the cell density reached ˜0.9 OD, the temperature was reduced to 18° C. and the culture was induced at 18° C. with 0.1 mM Isopropylthiogalactoside (IPTG). […] The cell pellets were aliquoted into four portions, flash frozen in liquid nitrogen and were stored at −80° C. until purification. For purification, frozen cell paste was thawed and resuspended in 50 ml lysis buffer (50 mM Tris, pH 8.0, 150 mM NaCl, 10% glycerol, 2 mM Tris-2-carboxyethyl phosphine (TCEP), 20 mM imidazole and 0.001% Triton X-100). After sonication, insoluble material was removed by centrifugation at 15,000 rpm in a Sorvall® RC5 plus centrifuge for 30 min at 4° C. and the supernatant was loaded onto a 5 ml HisTrap™ HP column (GE Healthcare, Piscataway, N.J.) and washed with five column volumes of lysis buffer. Bound proteins were eluted using an elution buffer containing 300 mM imidazole. Fractions containing AMPK subunits were pooled based on SDS-10% PAGE analysis and dialyzed overnight in dialysis buffer (50 mM Tris, pH 8.0, 150 mM NaCl, 10% glycerol, 2 mM TCEP, and 0.001% Triton X-100). […] The phosphorylated AMPK complex was re-purified on HisTrap™ HP column as before, dialyzed over night in dialysis buffer. The phosphorylated AMPK complex was further purified by gel filtration chromatography with a Superdex 200 HiLoad 16/60 column (GE Healthcare) in SEC buffer (50 mM Tris, pH 8.0, 150 mM NaCl, 10% glycerol, 2 mM TCEP, and 0.001% Triton X-100).
The harvest time (72 hours post infection) was indicated by percent cell viability (to 85-90%) and increased cell diameter (3-4 μm). […] For purification, the cell paste was resuspended in 500 mL lysis buffer (50 mM Tris pH 8.0, 150 mM NaCl, 25 mM imidazole, 10% glycerol, 2 mM MgCl2, 2 mM TCEP+protease inhibitor cocktail. After lysis, cellular debris was removed by centrifugation at 36K×g for 1 hour. The resulting supernatant was filtered at 0.2 micron before applying to a 1 mL nickel charged IMAC column (HisTrap, GE). The bound resin was washed to baseline with 50 CV of 50 mM Tris pH 8.0, 150 mM NaCl, 25 mM imidazole, 10% glycerol, 2 mM MgCl2, 2 mM TCEP before eluting over a 20 CV gradient to 100% with wash buffer containing 500 mM imidazole. Pooled fractions containing PP2A were combined and diluted 10× with 50 mM Tris pH 8.0, 10% glycerol, 1 mM TCEP and applied to a 1 mL AIEX resin (HiTrap QFF, GE). The bound resin was washed with dilution buffer and PP2A was eluted over a 20 CV gradient to 100% 50 mM Tris pH 8.0, 500 mM NaCl, 10% glycerol, 1 mM TCEP and was further diluted 1:1 with 50 mM Tris pH 8.0, 150 mM NaCl, 10% glycerol, and 1 mM TCEP buffer.
The biochemical EC50 (half-maximal concentration required for full activation) of compounds for the activation of AMPK was evaluated by ^33P-based assay using SAMS peptide (commercially available) derived from ACC-1. Twenty μl of phosphorylated AMPK diluted in assay buffer, (50 mM HEPES, 1 mM EGTA, 10 mM MgCl2, 0.25 mM DTT, 0.01% Tween-20, 0.01% BSA (pH 7.5)) was added to 384 well plates containing 1 μL of test compound. Following a fifteen minute room temperature incubation, 10 μL of protein phosphatase PP2A was added to the plate to dephosphorylate pThr172 of AMPK. […] The reaction was terminated after 60 minutes incubation at room temperature by the addition of 15 μL of 2% H3PO4.

Chain of human AMPK (full-length γ1, β1 and α1 subunits) (Q13131 whole entry): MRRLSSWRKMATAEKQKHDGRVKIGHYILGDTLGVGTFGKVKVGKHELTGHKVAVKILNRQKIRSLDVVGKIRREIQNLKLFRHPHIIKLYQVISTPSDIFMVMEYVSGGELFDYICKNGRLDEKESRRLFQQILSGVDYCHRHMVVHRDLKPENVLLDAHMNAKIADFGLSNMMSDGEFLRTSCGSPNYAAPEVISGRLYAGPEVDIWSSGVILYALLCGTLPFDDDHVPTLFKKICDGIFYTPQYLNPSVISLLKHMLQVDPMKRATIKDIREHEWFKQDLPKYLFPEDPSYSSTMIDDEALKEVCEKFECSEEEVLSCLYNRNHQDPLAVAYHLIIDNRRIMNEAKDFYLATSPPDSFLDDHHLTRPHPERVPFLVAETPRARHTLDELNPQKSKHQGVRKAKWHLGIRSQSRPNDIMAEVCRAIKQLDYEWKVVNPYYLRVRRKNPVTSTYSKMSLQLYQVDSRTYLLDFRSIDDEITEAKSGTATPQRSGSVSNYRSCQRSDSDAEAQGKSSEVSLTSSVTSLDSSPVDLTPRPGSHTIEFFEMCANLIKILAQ
Chain of human AMPK (full-length γ1, β1 and α1 subunits) (Q9Y478 whole entry): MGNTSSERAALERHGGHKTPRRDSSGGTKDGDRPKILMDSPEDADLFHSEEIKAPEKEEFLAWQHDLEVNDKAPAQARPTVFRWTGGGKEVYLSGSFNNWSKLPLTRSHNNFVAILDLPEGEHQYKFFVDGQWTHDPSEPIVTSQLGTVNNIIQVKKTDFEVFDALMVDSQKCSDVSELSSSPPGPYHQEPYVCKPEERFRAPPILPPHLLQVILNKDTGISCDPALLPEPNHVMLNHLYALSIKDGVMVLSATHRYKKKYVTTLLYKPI
Chain of human AMPK (full-length γ1, β1 and α1 subunits) (P54619 whole entry partner): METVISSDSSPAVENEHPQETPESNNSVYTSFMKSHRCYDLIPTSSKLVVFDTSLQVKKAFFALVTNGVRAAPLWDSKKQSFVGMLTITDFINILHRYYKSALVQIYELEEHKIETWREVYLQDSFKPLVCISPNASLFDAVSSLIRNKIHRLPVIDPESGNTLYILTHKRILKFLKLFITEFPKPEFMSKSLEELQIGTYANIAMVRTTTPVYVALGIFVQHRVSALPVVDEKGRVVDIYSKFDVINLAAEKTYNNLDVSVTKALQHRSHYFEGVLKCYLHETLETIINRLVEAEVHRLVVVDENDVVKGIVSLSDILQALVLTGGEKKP

EC50	Emax	Maximum	SMILES
383 nM	101%		COc1cccc(-c2cc3c(C(=O)O)c[nH]c3cc2Cl)c1 [Example 29, 6-chloro-5-(3-methoxyphenyl)-1H-indole-3-carboxylic acid]
31.9 nM	159%		O=C(O)c1c[nH]c2cc(F)c(-c3ccc(C4(CO)CCC4)cc3F)cc12 [Example 165, 6-fluoro-5-{2-fluoro-4-[1-(hydroxymethyl)cyclobutyl]phenyl}-1H-indole-3-carboxylic acid]
135 nM	103%		CC(=O)N1CCC(c2ccc(-c3cc4c(C(=O)O)c[nH]c4cc3Cl)cc2)CC1 [Example 65, 5-[4-(1-acetylpiperidin-4-yl)phenyl]-6-chloro-1H-indole-3-carboxylic acid]
64.7 nM	88%		O=C(O)c1c[nH]c2cc(Cl)c(-c3ccc(CO)cc3)cc12 [Example 2, 6-Chloro-5-[4-(hydroxymethyl)phenyl]-1H-indole-3-carboxylic acid]
> 50000 nM			O=S(=O)(O)c1c[nH]c2cc(Cl)c(-c3ccc(-c4ccccc4O)cc3)cc12 [Example 133, 6-Chloro-5-(2′-hydroxy-[1,1′-biphenyl]-4-yl)-1H-indole-3-sulfonic acid]
38.1 nM	91%		O=C(O)c1c[nH]c2cc(Cl)c(-c3ccc(OCCCN4CCNCC4)cc3)cc12 [Example 52, 6-chloro-5-{4-[3-(piperazin-1-yl)propoxy]phenyl}-1H-indole-3-carboxylic acid]
0.5 nM	91%		O=C(O)c1c[nH]c2cc(Cl)c(-c3ccc(C4(CO)CC4)cc3)cc12 [Example 75, 6-chloro-5-{4-[1-(hydroxymethyl)cyclopropyl]phenyl}-1H-indole-3-carboxylic acid]
2000 nM	68%		O=C(O)c1c[nH]c2cc(Cl)c(-c3ccc(C4(C(=O)O)CCC4)cc3)cc12 [Example 78, 5-[4-(1-carboxycyclobutyl)phenyl]-6-chloro-1H-indole-3-carboxylic acid]
554 nM	73%		O=C(O)c1c[nH]c2cc(Cl)c(-c3ccc(CC(=O)N4CCC4)cc3)cc12 [Example 11, 5-{4-[2-(azetidin-1-yl)-2-oxoethyl]phenyl}-6-chloro-1H-indole-3-carboxylic acid]
37.8 nM		103.8%	O=C(O)c1c[nH]c2cc(F)c(-c3ccc(C4CCCO4)cc3)cc12 (single isomer, unassigned) [Example 151, 6-fluoro-5-[4-(tetrahydrofuran-2-yl)phenyl]-1H-indole-3-carboxylic acid]
85.3 nM	83%		COc1ccc(-c2cc3c(C(=O)O)c[nH]c3cc2Cl)cc1 [Example 33, 6-Chloro-5-(4-methoxy-phenyl)-1H-indole-3-carboxylic acid]
84.5 nM	114%		COc1nc(N(C)CCO)ccc1-c1cc2c(C(=O)O)c[nH]c2cc1Cl [Example 186, 6-chloro-5-{6-[(2-hydroxyethyl)(methyl)amino]-2-methoxypyridin-3-yl}-1H-indole-3-carboxylic acid]
9.3 nM		119%	O=C(O)c1c[nH]c2cc(F)c(-c3ccc(C4(CO)CCC4)cc3)c(F)c12 [Example 141, 4,6-difluoro-5-(4-(1-(hydroxymethyl)cyclobutyl)phenyl)-1H-indole-3-carboxylic acid]
93.8 nM	93%		O=C(O)c1n[nH]c2cc(Cl)c(-c3ccc(C4CCOC4)cc3)cc12 (racemic) [Example 124, (±)-6-Chloro-5-(4-(tetrahydrofuran-3-yl)phenyl)-1H-indazole-3-carboxylic acid]
19.8 nM	70%		O=C(O)c1n[nH]c2cc(Cl)c(-c3ccc(N4CCOCC4)cc3)cc12 [Example 128, 6-Chloro-5-(4-morpholinophenyl)-1H-indazole-3-carboxylic acid]
4.3 nM	117%		O=C(O)c1c[nH]c2cc(Br)c(-c3ccc(-c4ccccc4O)cc3)cc12 [Example 68, 6-Bromo-5-(2′-hydroxybiphenyl-4-yl)-1H-indole-3-carboxylic acid]
819 nM	108%		O=C(O)c1c[nH]c2cc(Cl)c(-c3ccc(C4CCCN4)cc3)cc12 (centres unmarked) [Example 83, 6-chloro-5-[4-(pyrrolidin-2-yl)phenyl]-1H-indole-3-carboxylic acid]
28.3 nM		104.8%	O=C(O)c1c[nH]c2cc(Cl)c(-c3ccc(C4CCCO4)cc3)cc12 (single isomer, unassigned) [Example 154, 6-chloro-5-[4-(tetrahydrofuran-2-yl)phenyl]-1H-indole-3-carboxylic acid]
21.5 nM	92.9%		O=C(O)c1c[nH]c2cc(Cl)c(-c3ccc(C4(CO)CCC4)c(F)c3)cc12 [Example 142, 6-chloro-5-{3-fluoro-4-[1-(hydroxymethyl)cyclobutyl]phenyl}-1H-indole-3-carboxylic acid]
43.5 nM	60%		CC(=O)N1CCN(c2ccc(-c3cc4c(C(=O)O)n[nH]c4cc3Cl)cc2)CC1 [Example 107, 5-(4-(4-Acetylpiperazin-1-yl)phenyl)-6-chloro-1H-indazole-3-carboxylic acid]
58.1 nM	83%		O=C(O)c1c[nH]c2cc(Cl)c(-c3ccc(C4(CO)COC4)cc3)cc12 [Example 96, 6-chloro-5-{4-[3-(hydroxymethyl)oxetan-3-yl]phenyl}-1H-indole-3-carboxylic acid]
236 nM	119%		O=C(O)c1c[nH]c2cc(Cl)c(-c3ccc4c(c3)OC[C@H](CO)O4)cc12 [Example 144, 6-chloro-5-[(2S)-2-(hydroxymethyl)-2,3-dihydro-1,4-benzodioxin-6-yl]-1H-indole-3-carboxylic acid]
6.5 nM	82%		O=C(O)c1c[nH]c2cc(F)c(-c3ccc(-c4ccccc4O)cc3)cc12 [Example 135, 6-fluoro-5-(2′-hydroxybiphenyl-4-yl)-1H-indole-3-carboxylic acid]
13.7 nM	122%		O=C(O)c1c[nH]c2cc(F)c(-c3ccc(C4(CO)CC4)cc3)c(F)c12 [Example 22, 4,6-difluoro-5-(4-(1-(hydroxymethyl)cyclopropyl)phenyl)-1H-indole-3-carboxylic acid]
19 nM	80%		O=C(O)c1c[nH]c2cc(Cl)c(-c3ccc(OCC4CCO4)cc3)cc12 (centres unmarked) [Example 182, 6-chloro-5-[4-(oxetan-2-ylmethoxy)phenyl]-1H-indole-3-carboxylic acid]
15.3 nM	49.4%		COc1nc(N2CCOCC2)ccc1-c1cc2c(C(=O)O)c[nH]c2cc1Cl [Example 174, 6-chloro-5-[2-methoxy-6-(morpholin-4-yl)pyridin-3-yl]-1H-indole-3-carboxylic acid]
44.8 nM	97%		O=C(O)c1n[nH]c2cc(Cl)c(-c3ccc(OCCO)cc3)cc12 [Example 119, 6-Chloro-5-(4-(2-hydroxyethoxy)phenyl)-1H-indazole-3-carboxylic acid]
